The results in this text go back to patent US9055743B2, “Alpha, beta-unsaturated imines” (BAYER INTELLECTUAL PROPERTY GMBH, priority 2010, dated 2015).

Common to all, as to assay type: in vivo
The subject of test [1] is caterpillars of the army worm (Spodoptera frugiperda). Description: Spodoptera frugiperda test (SPODFR spray treatment). Particulars: 500 g/ha, spray, after 7 days. In a few lines: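 Activity in % read 7 days after armyworm caterpillars were placed on dried, sprayed Zea mays leaf discs; 0% means none killed. Spray prepared from an acetone/DMF concentrate with emulsifier, diluted with emulsifier-containing water.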

The test system of another test is Boophilus microplus. Description: Boophilus microplus test (BOOPMI injection). The following applies: 20 μg/animal, injection into the abdomen, after 7 days. The protocol: Boophilus microplus Test (BOOPMI Injection)
(§1) Solvent: Dimethyl Sulphoxide
To produce a suitable preparation of active compound, 10 mg of active compound are mixed with 0.5 ml of solvent and the concentrate is diluted with solvent to the desired concentration. The solution of active compound is injected into the abdomen (Boophilus microplus), and the animals are transferred into dishes and kept in a climatized room. The activity is assessed by […] of fertile eggs.
After 7 days, the effect in % is determined 100% means that none of the ticks has laid any fertile eggs.

The test system of test [2] is cat fleas (Ctenocephalides felis, fully sensitive laboratory strain). Description: Contact test against fleas in-vitro (CTECFE contact). The following applies: 500 g/ha, after 48 h. As to the method:
Contact Test Against Fleas In-Vitro (CTECFE Contact)
An amount of 0.9 mg of active compound is weighed out, and 1 ml of acetone is added.
Of this acetone solution, either […] are transferred directly into roll-necked test tubes or an aliquot is diluted with 4 parts of acetone 1:5. For its part, 250 μl of this dilution are pipetted into roll-necked test tubes, or the dilution is diluted further, etc., until the desired number of dilution steps is reached.
The roll-necked test tubes containing the solution of the active compound in acetone are immediately coated in a fume cupboard by 2 h of swing rotation at 30 rpm. After evaporation of the solvent, the active compound contained in the acetone gives, at the highest concentration tested, an active compound content of 500 g/ha (or 500 μg/dm^2) on the surface of the test tube.
10-20 Adult cat fleas (Ctenocephalides felis, fully sensitive laboratory strain) anesthetized with CO2 are transferred into the test tubes prepared in this manner, and the test tubes are closed with a plastic roll-necked lid provided with fine holes.
The test tubes are stored vertically at room temperature and humidity for 24 or 48 h. After 24 and 48 h, the activity of the active compound applied is determined by comparison with an acetone-treated control. Here, an observed normal activity for all fleas corresponds to 0% activity, a strongly restricted or uncoordinated (knock-down) movement or death of all fleas corresponds to 100% activity.

A further test deals with Lucilia cuprina larvae. Description: Lucilia cuprina test (LUCICU). Particulars: 100 ppm, after 2 days. As to the method:
Lucilia cuprina Test (LUCICU)
as §1
To produce a suitable preparation of active compound, 10 mg of active compound are mixed with 0.5 ml of dimethyl sulphoxide and the concentrate is diluted with water to the desired concentration. Vessels containing horsemeat treated with the active compound preparation of the desired concentration are populated with about 20 Lucilia cuprina larvae.
After 2 days, the kill in % is determined. 100% means that all larvae have been killed; 0% means that none of the larvae have been killed.

Test [3] concerns green peach aphid (Myzus persicae). Description: Myzus test (MYZUPE spray treatment). Particulars: 500 g/ha, spray, after 6 days. In a few lines:
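Activity read as % aphid kill 6 days after treatment (0% = none killed). Compound formulated in acetone and dimethylformamide plus alkylaryl polyglycol ether, diluted in water and sprayed onto infested Brassica pekinensis leaf discs.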

Test [4] relates to larvae of the mustard beetle (Phaedon cochleariae). Description: Phaedon test (PHAECO spray treatment). Particulars: 500 g/ha, spray, after 7 days. An outline of the steps: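 Mustard beetle larvae were placed on dried Brassica pekinensis leaf discs previously spray-treated with test compound; formulation used acetone and dimethylformamide solvents plus alkylaryl polyglycol ether emulsifier, diluted with emulsifier-containing water.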

For the next test, the system named is Ctenocephalides felis. Description: Ctenocephalides felis oral test (CTECFE). Particulars: 100 ppm in citrated cattle blood, after two days. As to the method: Ctenocephalides Felis Oral Test (CTECFE)
Solvent: 1 Part by Weight of Dimethyl Sulphoxide
To produce a suitable preparation of active compound, 10 mg of active compound are mixed with 0.5 ml of dimethyl sulphoxide. Part of the concentrate is diluted with citrated cattle blood, and the desired concentration is prepared.
About 20 unfed adult fleas (Ctenocephalides felis) are placed into a chamber which is closed at the top and bottom with gauze. A metal cylinder whose bottom end is closed with parafilm is placed onto the chamber. The cylinder contains the blood/active compound preparation, which can be taken up by the fleas through the parafilm membrane. After two days, the kill in % is determined 100% means that all fleas have been killed; 0% means that none of the fleas have been killed.

The subject of test [5] is greenhouse red spider mite (Tetranychus urticae). Description: Tetranychus test; OP-resistant (TETRUR spray treatment). Particulars: 500 g/ha, spray, after 6 days. An outline of the steps: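 Activity, as % of mites killed (0–100%), was assessed 6 days after spraying. The spray was compound formulated with acetone, DMF and emulsifier, then diluted in water. It was applied to Phaseolus vulgaris leaf discs carrying every life stage of an OP-resistant spider mite strain.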

In test [6] the test system is Anopheles gambiae (homocygus kdr). Description: Anopheles test (ANPHGB surface treatment). Particulars: for knock-down activity: 100 mg/m^2, two hours after contact, exposition 30 minutes. An outline of the steps:
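Adult mosquitoes held 30 min on a glazed tile treated with a dried 2 mg/ml acetone solution of compound. Mortality scored at 24 h (100% = all killed), knock-down percentage at 2 h post-contact.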

The next test has as its system Aedes aegypti. Description: Aedes test (AEDSAE surface treatment). Particulars: 100 mg/m^2, two hours after contact, exposition 30 minutes. As to the method:
Aedes Test (AEDSAE Surface Treatment)
To produce a suitable preparation of active compound, the active compound is dissolved in acetone (2 mg/ml). The active compound preparation is pipetted onto a glazed tile and, after drying, adult mosquitoes of the species Aedes aegypti are placed onto the treated tile. The exposition time is 30 minutes.
Two hours after contact to the treated surface, the knock-down proportion of the test animals in % is determined.
24 hours after contact to the treated surface, the mortality in % is determined Here, 100% means that all mosquitoes have been killed; 0% means that none of the mosquitoes has been killed.

Structures are written as SMILES.

Consider `CC1C(=CSc2ccccc2)C(=Nc2ccc(F)cc2)c2ccccc21` (mixture of isomers) [Example 1-6], for which the “activity (caterpillars killed)” value in test [1] amounted to 100%. Besides, in the test with Boophilus microplus, the “activity (100% = none of the ticks has laid any fertile eggs)” value was 100%. In addition, the “activity against cat fleas” value in test [2] is listed as 100%. For the same molecule, the “activity (kill in %)” value in the test on Lucilia cuprina larvae and in the test on Ctenocephalides felis was 100% each time. The “activity (aphids killed)” value in test [3] is on record as 100%. The “activity (beetle larvae killed)” value in test [4] turned out to be 100%. In addition, the “activity (spider mites killed)” value in [5] is given as 100%.
As to `Cc1ccc(N=C2C(=CSc3ccc(F)cc3)C(C)c3cc(C)ccc32)c(C)c1` (mixture of isomers) [Example 1-85], the “activity (caterpillars killed)” value in test [1] is given as 100%. This molecule also registered a knock-down activity in [6] of 100%. For the same molecule, the “activity (100% = none of the ticks has laid any fertile eggs)” value in the test on Boophilus microplus is recorded as 100%. Further, the “activity against cat fleas” value in [2] was found to be 100%. Further, the “activity (kill in %)” value in the test with Lucilia cuprina larvae is reported as 100%; in the test with Ctenocephalides felis, 90%. The “activity (aphids killed)” value in [3] is reported as 100%. For the same molecule, in test [4], the “activity (beetle larvae killed)” value is listed as 100%. In test [5], the “activity (spider mites killed)” value is reported as 100%.
For `Fc1ccc(N=C2/C(=C/Sc3ccccc3)CCc3ccccc32)cc1` [Example 1-3, 4-Fluoro-N-[(2E)-2-[(phenylsulphanyl)methylene]-3,4-dihydronaphthalen-1(2H)-ylidene]aniline], the pest or weed control at 500 g/ha in test [1] (Spodoptera frugiperda, 168 h, read-out: activity (caterpillars killed)) came to 100%; in test [3] (Myzus persicae, 144 h, read-out: activity (aphids killed)), 100%; in test [4] (Phaedon cochleariae, 168 h, read-out: activity (beetle larvae killed)), 100%; in [5] (Tetranychus urticae, 144 h, read-out: activity (spider mites killed)), 100%. The same molecule returned a knock-down activity in [6] of 80%. In addition, the mortality at 100 mg/m2 in test [6] (Anopheles gambiae, read-out: activity (mortality in %)) was 100%. In the test on Boophilus microplus, the “activity (100% = none of the ticks has laid any fertile eggs)” value was found to be 100%. For the same molecule, the “activity against cat fleas” value in [2] is recorded as 100%. The “activity (kill in %)” value with Lucilia cuprina larvae is 100%; with Ctenocephalides felis it was 90%.
Turning to `Cc1ccc(N=C2C(=CSc3ccccc3Cl)CCc3ccccc32)cc1` [Example 1-69], the “activity (caterpillars killed)” value in test [1] is reported as 100%. Further, the knock-down activity in test [6] turned out to be 90%. In addition, the “activity (100% = none of the ticks has laid any fertile eggs)” value with Boophilus microplus was 100%. Moreover, the “activity against cat fleas” value in test [2] was 100%. The “activity (kill in %)” value with Lucilia cuprina larvae and with Ctenocephalides felis was 100% in each case. In addition, the “activity (aphids killed)” value in [3] is 90%. The “activity (beetle larvae killed)” value in test [4] is 100%. For the same molecule, in test [5], the “activity (spider mites killed)” value amounted to 100%.
Consider `Cc1ccc(N=C2C(=CSc3ccc(F)c(F)c3)CCc3ccccc32)cc1` [Example 1-74], for which the “activity (caterpillars killed)” value in [1] is recorded as 100%. Moreover, the knock-down activity is 95% with Aedes aegypti and 100% in test [6]. The “activity (100% = none of the ticks has laid any fertile eggs)” value in the test on Boophilus microplus is 100%. Moreover, the “activity against cat fleas” value in test [2] is 100%. Moreover, the figures for the “activity (kill in %)” value in the test with Lucilia cuprina larvae and in the test on Ctenocephalides felis were 100% and 80%, respectively. In addition, the “activity (aphids killed)” value in [3] was 100%. Moreover, the “activity (beetle larvae killed)” value in test [4] was determined as 100%. Moreover, the “activity (spider mites killed)” value in test [5] is 100%.
As to `Cc1ccc(N=C2C(=CSc3ccc(F)cc3F)CCc3ccccc32)cc1` [Example 1-79], the “activity (caterpillars killed)” value in [1] came out at 100%. Besides, the knock-down activity (in the test with Aedes aegypti; in test [6]) was 100% in each case. Also, the “activity (100% = none of the ticks has laid any fertile eggs)” value with Boophilus microplus came out at 100%. Further, in test [2], the “activity against cat fleas” value is 100%. In addition, the “activity (kill in %)” value with Lucilia cuprina larvae and in the test on Ctenocephalides felis was 100% each time. The “activity (aphids killed)” value in [3] came out at 100%. Moreover, the “activity (beetle larvae killed)” value in test [4] is given as 100%. In addition, the “activity (spider mites killed)” value in test [5] is on record as 100%.
`Cc1ccc(N=C2C(=CSc3ccccc3F)CCc3ccccc32)cc1` [Example 1-80]: the “activity (caterpillars killed)” value in [1] is recorded as 100%. In addition, the results for the knock-down activity (with Aedes aegypti; in test [6]) were 80% and 100%, respectively. Further, the “activity (100% = none of the ticks has laid any fertile eggs)” value in the test with Boophilus microplus amounted to 100%. In test [2], the “activity against cat fleas” value came to 100%. The figures for the “activity (kill in %)” value with Lucilia cuprina larvae and in the test on Ctenocephalides felis were 100% and 90%, respectively. For the same molecule, the “activity (aphids killed)” value in [3] amounted to 100%. Besides, in test [4], the “activity (beetle larvae killed)” value came to 100%. Also, the “activity (spider mites killed)” value in test [5] was 100%.
As for `Cc1ccc(N=C2C(=CSc3cc(F)cc(F)c3)CCc3ccccc32)cc1` [Example 1-81], the “activity (caterpillars killed)” value in test [1] was found to be 100%. In [6], this molecule gave a knock-down activity of 100%. Also, the “activity (100% = none of the ticks has laid any fertile eggs)” value with Boophilus microplus was found to be 100%. In [2], the “activity against cat fleas” value turned out to be 100%. For the same molecule, the “activity (kill in %)” value with Lucilia cuprina larvae and in the test on Ctenocephalides felis was 100% in each case. The “activity (aphids killed)” value in [3] is on record as 100%. Further, the “activity (beetle larvae killed)” value in test [4] was 100%. For the same molecule, the “activity (spider mites killed)” value in test [5] was 100%.
Take `Cc1ccc(N=C2C(=CSc3ccc(C(F)(F)F)cc3)CCc3ccccc32)cc1` [Example 1-82]: in test [1], the “activity (caterpillars killed)” value is recorded as 100%. This molecule also registered a knock-down activity in [6] of 100%. For the same molecule, in the test with Boophilus microplus, the “activity (100% = none of the ticks has laid any fertile eggs)” value is given as 100%. The “activity against cat fleas” value in test [2] was determined as 100%. For the same molecule, the “activity (kill in %)” value with Lucilia cuprina larvae and with Ctenocephalides felis was 100% throughout. Besides, in [3], the “activity (aphids killed)” value stood at 100%. Further, the “activity (beetle larvae killed)” value in test [4] was 100%. Besides, the “activity (spider mites killed)” value in test [5] was found to be 100%.

As usually defined, the mortality is the percentage killed.
